The values that follow come from the NIST ThermoML archive (doi:10.1016/j.jct.2010.04.022).

Numbers after ± are expanded uncertainties.

For series [1] the following is noted: 298.15 K; 101.33 kPa; Liquid; Vibrating tube method.
Series [2] is described as follows: refractive index (Na D-line) (dimensionless). Conditions: 298.15 K; 101.33 kPa; Liquid; Standard Abbe refractometry.
Series [3] can be described thus: xn = mol fraction of the nth substance listed. As to conditions: 101 kPa, Liquid, Vibrating tube method.

As for `CCOS(=O)(=O)[O-].CC[n+]1ccccc1` [1-ethylpyridinium ethyl sulfate], in series [1], the mass density is listed as 1252 ± 0.4 kg/m3. The refractive index in series [2] was 1.50525 ± 0.00037.

As for `CCOS(=O)(=O)[O-].CC[n+]1ccccc1` [1-ethylpyridinium ethyl sulfate] + CCCCCC, the mass density in series [3] (283.15 K, x2 = 0.007) was determined as 1259.82 ± 0.99 kg/m3; in series [3] (298.15 K, x2 = 0.008) it was 1249.78 ± 1.1 kg/m3.

For `CCOS(=O)(=O)[O-].CC[n+]1ccccc1` [1-ethylpyridinium ethyl sulfate] + CCCCCCC, the mass density in series [3] (283.15 K, x2 = 0.007) is recorded as 1260.51 ± 0.99 kg/m3; in series [3] (298.15 K, x2 = 0.007), 1250.63 ± 0.98 kg/m3.

As for `CCOS(=O)(=O)[O-].CC[n+]1ccccc1` [1-ethylpyridinium ethyl sulfate] + c1ccccc1, the mass density in series [3] (283.15 K, x2 = 0.335) is listed as 1198.57 ± 1.7 kg/m3; in series [3] (298.15 K, x2 = 0.406), 1171.69 ± 1.7 kg/m3.

As a reminder, the mass density is mass per unit of volume. What is called refractive index is a measure of how strongly the sample bends light.
